Molecules are shown by their SMILES. Entries after “also recorded” stand apart in the source; their conditions may differ. Where two headings read alike, the source gives them in different places.

As a reminder, the EC50 is the midpoint of the concentration-response curve. Broadly, the IC50 is the concentration needed to halve the response being measured.

Experiment [1] deals with T1, EsaR (Pantoea stewartii subsp. stewartii, UniProt P54293).
T1 construct: expressed in transfected cells; host or cells: E. coli JLD271 (K12 ΔsdiA), arabinose-induced pJN105-esaR
T1 sequence (P54293 whole entry): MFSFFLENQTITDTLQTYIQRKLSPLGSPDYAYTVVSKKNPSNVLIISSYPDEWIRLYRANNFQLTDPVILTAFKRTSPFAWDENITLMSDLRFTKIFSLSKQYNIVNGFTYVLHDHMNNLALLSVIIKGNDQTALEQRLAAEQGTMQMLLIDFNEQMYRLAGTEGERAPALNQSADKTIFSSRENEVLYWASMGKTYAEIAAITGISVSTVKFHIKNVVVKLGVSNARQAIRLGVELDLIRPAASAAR
The experiment in a line: cell-based. The settings on record: for activation at 100 µM / inhibition at 100 µM: 3.5 h; for activation at 100 µM: read-out: EsaR-repressed (pesaR) [%] agonism; for inhibition at 100 µM: read-out: EsaR-repressed (pesaR) antagonism. The source says: (§1) EsaR transcriptional activation and repression were examined using E. coli and P. stewartii reporters (strains and plasmids listed in Table S1; see Methods section for assay details). […] We constructed reporters in E. coli based on previously reported EsaR reporters (Table S1). Each strain contained an EsaR expression plasmid (pJN105-esaR) and a reporter plasmid with either an EsaR-activated promoter (pesaS) or an EsaR-repressed promoter (pesaR) upstream of luxABCDE or GFP.
(§2) Gibson assembly was used to create all constructs. Plasmid pJN105-esaR was created by amplifying esaR from pAC-esaR and inserting it into pJN105. pesaSlux was created by inserting pesaS, amplified from pPesaR-AC:gfp, into the pCS-pesaRlux backbone. The pesaR promoter was amplified from pCS-pesaRlux and inserted into the pPesaR-AC:gfp backbone to create pesaR:GFP. P. stewartii reporter strains were created by transforming pesaR:GFP or pPesaR-AC:gfp into ESN51 by conjugation using E. coli S17 λpir as the donor strain. See SI for details of E. coli ExpR2 reporter construction.
(§3) Overnight cultures were diluted 1:10 in LB medium with appropriate antibiotics and grown at 37 °C (200 rpm) to an OD600 of 0.22–0.27 before induction with 4 mg mL^–1 arabinose. OD600 was measured by placing 200 μL of culture into a 96-well plate and reading optical density using the BioTek Synergy 2 plate reader. Assays were performed in technical triplicate in clear-bottom, white and clear-bottom, black 96-well microtiter plates (Corning Costar 3903 and 3904) for luminescence and fluorescence reporters, respectively. Compounds were dissolved in DMSO, and 2 μL of this stock, or DMSO as a negative control, was added to each well prior to adding 198 μL of induced culture. Plates were incubated at 37 °C (200 rpm) for 3.5 h. Each well was mixed by pipetting before reading OD600 and either luminescence or fluorescence. Single-point screens were performed with one or two biological replicates, and all dose–response curves were performed in biological triplicate. EC50 values were calculated based on a nonlinear regression of log(concentration) vs response (three parameters) using GraphPad Prism 9 software.

In experiment [2] the target is T1, EsaR. Put plainly: cell-based. The settings on record: for activation at 100 µM / inhibition at 100 µM: 3.5 h; for activation at 100 µM: read-out: EsaR-activated (pesaS) [%] agonism; for inhibition at 100 µM: read-out: EsaR-activated (pesaS) antagonism; for EsaR antagonism, in words / EsaR agonism, in words: E. coli EsaR reporters; for EsaR antagonism, in words: competed against OHHL at approx. EC50; for EsaR agonism, in words: primary screen at 100 μM; for EsaR agonism at 100 μM (bound stated in text): E. coli EsaR reporter.
Source text: as §1, §2, §3

Experiment [3] relates to LuxR. The conditions noted are these: cited from earlier work; for LuxR antagonism: 5 µM compound against 5 µM OHHL, negative values indicate potential activators, ref 6 (SI; Palmer et al., 2011); for LuxR [%] (agonism, activation): compounds at 200 μM, luminescence in V. fischeri ES114 (ΔluxI), ref Palmer et al., 2011 (main ref 44, SI ref 6).
In experiment [4] the test system is ExpR1. The settings on record: cited from earlier work; for ExpR1 antagonism: 5 µM compound against 5 µM OHHL, negative values indicate potential activators, ref 6 (SI; Palmer et al., 2011); for ExpR1 [%] (agonism, activation): compounds at 200 μM, cellulase activity in P. versatile AC5117, ref Palmer et al., 2011 (main ref 44, SI ref 6).
Experiment [5] has as its system ExpR2. The settings on record: cited from earlier work; for ExpR2 antagonism (percent inhibition): 5 µM compound against 5 µM OHHL, negative values indicate potential activators; for ExpR2 antagonism (percent inhibition) / IC50: ref 6 (SI; Palmer et al., 2011); for ExpR2 [%] (agonism, percent activation): compounds at 200 μM, cellulase activity in P. versatile AC5099, ref Palmer et al., 2011 (main ref 44, SI ref 6); for IC50: previously reported phenotypic reporter data.

Regarding `O=C(Cc1cccc(Br)c1)N[C@H]1CCOC1=O` [C8], in experiment [1], the activation at 100 µM stood at 30% and the inhibition at 100 µM was -65%. In experiment [2], the activation at 100 µM is 55% and the inhibition at 100 µM was -43%. Also, in experiment [3], the LuxR antagonism is 68% and the “LuxR [%] (agonism, activation)” value is on record as 70%. In experiment [4], the ExpR1 antagonism was 73% and the “ExpR1 [%] (agonism, activation)” value is given as 63%. Besides, in experiment [5], the “ExpR2 antagonism (percent inhibition)” value is reported as 59% and the “ExpR2 [%] (agonism, percent activation)” value is 97%.

Consider `O=C(NC1CCCC1)C1CCC1` [RN13], for which, in experiment [2], the “EsaR antagonism, in words” value is given as “None of these compounds antagonized EsaR” and the “EsaR agonism, in words” value is listed as “moderate agonist”.

As for `CC(=O)CC(=O)N[C@H]1CCOC1=O` [OBHL, reference compound], in experiment [1], the EC50 amounted to 97 µM.

With `O=C(Cc1ccccc1I)N[C@H]1CCOC1=O` [C12], in experiment [1], the activation at 100 µM came out at 9% and the inhibition at 100 µM stood at 4%. Moreover, in experiment [2], the activation at 100 µM was -9% and the inhibition at 100 µM was -12%. Further, in experiment [3], the LuxR antagonism is listed as 63% and the “LuxR [%] (agonism, activation)” value is recorded as 7%. Also, in experiment [4], the ExpR1 antagonism is given as 65% and the “ExpR1 [%] (agonism, activation)” value is 11%. Also, in experiment [5], the “ExpR2 antagonism (percent inhibition)” value is 55% and the “ExpR2 [%] (agonism, percent activation)” value is on record as 24%.

Take `CCCCCS(=O)(=O)N[C@H]1CCOC1=O` [A10]: the EC50 in experiment [1] and in experiment [2] was 17 µM in each case. Also, the “fold less potent than hexanoyl HL in EsaR” value in experiment [2] (E. coli EsaR reporter EC50 values) is listed as “about 3 fold”.

On to `CCCCCCCCCC(=O)N[C@H]1CCOC1=O` [DHL, reference compound], for which, in experiment [1], the activation at 100 µM came to 4% and the inhibition at 100 µM was -59%. Further, in experiment [2], the activation at 100 µM was 17% and the inhibition at 100 µM was -11%. In experiment [3], the LuxR antagonism is reported as 96% and the “LuxR [%] (agonism, activation)” value is recorded as 12%. Also, in experiment [4], the ExpR1 antagonism is given as 91% and the “ExpR1 [%] (agonism, activation)” value is reported as 6%. In experiment [5], the “ExpR2 antagonism (percent inhibition)” value is recorded as 76%; the “ExpR2 [%] (agonism, percent activation)” value is 44%; the IC50 is 0.9 µM.

As to `CCCCCCCCCC(=O)CC(=O)Nc1ccccc1` [V-06–018, reference compound], the “EsaR antagonism, in words, EsaR-repressed promoter” value in experiment [1] (E. coli reporter, competed against OHHL at approx. EC50) was “inactive as EsaR antagonists”. Also, the “EsaR antagonism, in words” value in experiment [2] was “inactive as EsaR antagonists”.

As to `CCCCCC(=O)N[C@H]1CCOC1=O` [HHL, hexanoyl HL, reference compound], in experiment [1], the activation at 100 µM came to 98% and the inhibition at 100 µM is -126%. Moreover, in experiment [2], the activation at 100 µM amounted to 100%; the inhibition at 100 µM was -96%; the “EsaR agonism, in words” value is given as “strongly activated”. Moreover, in experiment [3], the LuxR antagonism was 69% and the “LuxR [%] (agonism, activation)” value is recorded as 2%. Also, in experiment [4], the ExpR1 antagonism is listed as 67% and the “ExpR1 [%] (agonism, activation)” value is 5%. In experiment [5], the “ExpR2 antagonism (percent inhibition)” value is on record as 12% and the “ExpR2 [%] (agonism, percent activation)” value was 94%.

Regarding `O=C(N[C@H]1CCOC1=O)c1ccc(Br)cc1` [B6], the activation at 100 µM in experiment [1] was 11%; in experiment [2], -4%. Also, the “LuxR [%] (agonism, activation)” value in experiment [3] is reported as 2%. Also, in experiment [4], the “ExpR1 [%] (agonism, activation)” value is 2%. Besides, in experiment [5], the “ExpR2 [%] (agonism, percent activation)” value is on record as 7%.

With `CSc1cccc(CC(=O)N[C@H]2CCOC2=O)c1` [E7, 3-SCH3 PHL], in experiment [1], the activation at 100 µM was 11% and the inhibition at 100 µM is -3%. Moreover, in experiment [2], the activation at 100 µM is 23%; the inhibition at 100 µM was -26%; the “EsaR agonism, in words” value is “nearly inactive”. For the same compound, in experiment [3], the LuxR antagonism was 88% and the “LuxR [%] (agonism, activation)” value is recorded as 4%. Further, in experiment [4], the ExpR1 antagonism was 79% and the “ExpR1 [%] (agonism, activation)” value was 0%. In addition, in experiment [5], the “ExpR2 antagonism (percent inhibition)” value is on record as 71% and the “ExpR2 [%] (agonism, percent activation)” value was 13%.

Regarding `CCCCCCCCCCCCCCCC(=O)N[C@H]1CCOC1=O` [hDHL, reference compound], in experiment [1], the activation at 100 µM is 22% and the inhibition at 100 µM was -71%. In experiment [2], the activation at 100 µM stood at 25% and the inhibition at 100 µM is -11%. For the same compound, in experiment [3], the LuxR antagonism was 27% and the “LuxR [%] (agonism, activation)” value was 2%. Moreover, in experiment [4], the ExpR1 antagonism is reported as 4% and the “ExpR1 [%] (agonism, activation)” value was 0%. In experiment [5], the “ExpR2 antagonism (percent inhibition)” value is 7% and the “ExpR2 [%] (agonism, percent activation)” value is listed as 11%.

`CCCCCC(=O)CC(=O)N[C@H]1CCOC1=O` [OOHL, 3-(oxo)-octanoyl HL, reference compound]: in experiment [1], the activation at 100 µM is 91% and the inhibition at 100 µM is -138%. For the same compound, in experiment [2], the activation at 100 µM came to 100%; the inhibition at 100 µM was -89%; the “EsaR agonism, in words” value is “strongly activated”. Also, in experiment [3], the LuxR antagonism was 63% and the “LuxR [%] (agonism, activation)” value is recorded as 24%. Further, in experiment [4], the ExpR1 antagonism was 65% and the “ExpR1 [%] (agonism, activation)” value is 29%. Also, in experiment [5], the “ExpR2 antagonism (percent inhibition)” value is reported as 26% and the “ExpR2 [%] (agonism, percent activation)” value is given as 78%.

For the compound `O=C(Cc1cccc([N+](=O)[O-])c1)NC1CCCC1` [F18], in experiment [2], the “EsaR antagonism, in words” value is given as “None of these compounds antagonized EsaR”.

Turning to `O=C1OCC[C@@H]1NS(=O)(=O)c1cc(Cl)cc(Cl)c1` [GAF 50], the EC50 in experiment [1] and in experiment [2] was 24 µM each time.

Turning to `Cc1ccc(CS(=O)(=O)N[C@H]2CCOC2=O)cc1` [GAF 13], in experiment [2], the “EsaR agonism at 100 μM (bound stated in text)” value was not above 50%.

With `CCCCCCCCCC(=O)NC1CCCC1` [C10-CPA, reference compound], the “EsaR antagonism, in words” value in experiment [2] is recorded as “did not show antagonism; also recorded: None of these compounds antagonized EsaR”.

Regarding `O=C1OCC[C@@H]1NS(=O)(=O)Cc1cccc(Cl)c1` [GAF 33], in experiment [2], the “EsaR agonism at 100 μM (bound stated in text)” value is not above 50%.

Consider `O=C(COc1ccc(I)cc1)NC1CCCC1` [RN17], for which the “EsaR antagonism, in words” value in experiment [2] is “None of these compounds antagonized EsaR”.

For `O=C(CCc1cccc([N+](=O)[O-])c1)N[C@H]1CCOC1=O` [E38], the EC50 in experiment [2] was not below 64 µM.

Turning to `O=C(Cc1ccc(I)cc1)N[C@H]1CCOC1=O` [C10], in experiment [1], the activation at 100 µM was 0.4% and the inhibition at 100 µM turned out to be 25%. Further, in experiment [2], the activation at 100 µM worked out at 7% and the inhibition at 100 µM was -5%. In experiment [4], the ExpR1 antagonism is on record as 73% and the “ExpR1 [%] (agonism, activation)” value is 6%. In experiment [5], the “ExpR2 antagonism (percent inhibition)” value was 68%; the “ExpR2 [%] (agonism, percent activation)” value is reported as 19%; the concentration for half-maximal inhibition (IC50) is 0.9 µM.

On to `CCCC(=O)NC1CCCC1` [RN4], for which the “EsaR antagonism, in words” value in experiment [2] is on record as “None of these compounds antagonized EsaR”.

Turning to `CC(C)CC(=O)NC1CCCC1` [RN20], in experiment [2], the “EsaR antagonism, in words” value was “None of these compounds antagonized EsaR”.

Take `O=C1OCC[C@@H]1NS(=O)(=O)c1ccc(Cl)c(Cl)c1Cl` [GAF 45]: the EC50 in experiment [1] came to 4.9 µM; in experiment [2] it was 4.7 µM.

Turning to `O=C1OCC[C@@H]1NS(=O)(=O)Cc1cccc(Br)c1` [GAF 41], the “EsaR agonism at 100 μM (bound stated in text)” value in experiment [2] is given as not above 50%.

As for `CCCS(=O)(=O)N[C@H]1CCOC1=O` [A8], the EC50 is not below 71 µM in experiment [1] and not below 66 µM in experiment [2].

The values are drawn from PMC12459020, “Chemical Probes that Target a Dissociative LuxR-Type Quorum Sensing Receptor in Gram-Negative Bacteria” (ACS Chemical Biology, 2025).
